In publication PMC4844649, “A first-in-Asian phase 1 study to evaluate safety, pharmacokinetics and clinical activity of VS-6063, a focal adhesion kinase (FAK) inhibitor in Japanese patients with advanced solid tumors” (Cancer Chemotherapy and Pharmacology, 2016):
Values joined by “and” are separate entries in the source; they are usually repeats but may differ in a detail not shown here. Equal values may be shown once. “Also recorded” adds a separate entry of the source.

How the values were obtained:
[1] = phase 1 safety and tolerability (CTCAE v4.03) in Japanese patients with advanced solid tumors; assay type: in vivo; settings: for Grade 3 AE of unconjugated hyperbilirubinemia: 200 mg BID cohort; for dose-limiting toxicities (DLTs): 200–600 mg BID
Method: This was a phase 1, open-label, dose-escalation study to evaluate the safety and PK of VS-6063, a FAK inhibitor in Japanese subjects with advanced solid tumor malignancies. This study was expected to enroll up to 18 evaluable subjects with non-hematologic malignancies if 6 subjects were assigned at each of the 3 planned dose levels of 200, 400, and 600 mg BID. VS-6063 was administered orally, BID, in continuous 21 day cycles. Subject enrollment proceeded according to a standard 3 + 3 design. In the absence of DLT, each subject received oral VS-6063 (BID) for a minimum of 21 days of continuous daily dosing (1 cycle) and could continue to receive additional cycles of study treatment until disease progression was documented or other treatment discontinuation criteria were met. All patients within a cohort were required to complete 1 cycle (21 days) of dosing with <1 of 3 or <2 of 6 subjects experiencing a DLT prior to escalation to the next dose level in a new cohort. Three subjects were to be treated at each dose level until the first instance of DLT, after which up to 6 subjects were to be treated at that dose level. […] The MTD was defined as the highest dose level studied at which <1 subject out of 3 or <2 subjects out of 6 experienced a DLT. The RP2D was to be determined in discussion among the sponsor, medical monitor, and investigators. Observations related to PK and any VS-6063-related toxicities were included in the rationale supporting the RP2D. Safety and tolerability was assessed by the incidence and severity of AEs as determined by National Cancer Institute (NCI) Common Terminology Criteria for Adverse Events (CTCAE v4.03). The antitumor activity of study treatment was assessed according to the Response Evaluation Criteria in Solid Tumors (RECIST v1.1).

UGT1A1 = settings: in vitro; no reference given; cited from earlier work
[2] = preclinical; no reference given; cited from earlier work
CYP 2C, 2D, 3A = settings: preclinical evidence; no reference given; cited from earlier work
[3] = 200 mg BID, N = 3, listed as defactinib
[4] = 400 mg BID, N = 3, listed as defactinib
[5] = 600 mg BID, N = 3, listed as defactinib
[6] = Total, N = 9, listed as defactinib

In the case of CNC(=O)c1ccc(Nc2ncc(C(F)(F)F)c(NCc3nccnc3N(C)S(C)(=O)=O)n2)cc1 [VS-6063, defactinib], the “Grade 3 AE of unconjugated hyperbilirubinemia” value [1] is reported as “Only one subject”, the “Grade 3 AE of unconjugated hyperbilirubinemia” value ([1]; listed as defactinib) is reported as “Only one patient” and the “Anemia, treatment-related adverse event” value ([1]; 200 mg BID, N = 3) is reported as 0 n (%). The “Aspartate aminotransferase increased, treatment-related adverse event” value (“Aspartate aminotransferase increased” for short) ([1]; 200 mg BID, N = 3) was 1 (33.3) n (%), the “Blood alkaline phosphatase increased, treatment-related adverse event” value (“Blood alkaline phosphatase increased” for short) ([1]; 200 mg BID, N = 3) was 2 (66.7) n (%) and the “Blood bilirubin increased, treatment-related adverse event” value (“Blood bilirubin increased” for short) ([1]; 200 mg BID, N = 3) was 3 (100.0) n (%). The “Decreased appetite, treatment-related adverse event” value (from here on “Decreased appetite”) ([1]; 200 mg BID, N = 3) was 2 (66.7) n (%), the “Diarrhea, treatment-related adverse event” value ([1]; 200 mg BID, N = 3) was 0 n (%) and the “Fatigue, treatment-related adverse event” value ([1]; 200 mg BID, N = 3) was 2 n (%) and 2 (66.7) n (%). The “Headache, treatment-related adverse event” value ([1]; 200 mg BID, N = 3) was 0 n (%), the “Nausea, treatment-related adverse event” value ([1]; 200 mg BID, N = 3) was 1 (33.3) n (%) and the “Blood bilirubin increased” value [1, 3] was 3 n (%). The “Nausea, treatment-related adverse event” value [1, 3] was 1 n (%), the “Anemia, treatment-related adverse event” value ([1]; 400 mg BID, N = 3) was 0 n (%) and the “Aspartate aminotransferase increased” value ([1]; 400 mg BID, N = 3) was 0 n (%). For the same compound, the “Blood alkaline phosphatase increased” value ([1]; 400 mg BID, N = 3) was 0 n (%), the “Blood bilirubin increased” value ([1]; 400 mg BID, N = 3) was 2 (66.7) n (%) and the “Decreased appetite” value ([1]; 400 mg BID, N = 3) was 1 (33.3) n (%). The “Diarrhea, treatment-related adverse event” value ([1]; 400 mg BID, N = 3) was 1 (33.3) n (%), the “Fatigue, treatment-related adverse event” value ([1]; 400 mg BID, N = 3) was 1 n (%) and 1 (33.3) n (%) and the “Headache, treatment-related adverse event” value ([1]; 400 mg BID, N = 3) was 1 (33.3) n (%). The “Nausea, treatment-related adverse event” value ([1]; 400 mg BID, N = 3) was 0 n (%), the “Blood bilirubin increased” value [1, 4] was 2 n (%) and the “Diarrhea, treatment-related adverse event” value [1, 4] was 1 n (%). For the same compound, the “Anemia, treatment-related adverse event” value ([1]; 600 mg BID, N = 3) was 2 (66.7) n (%), the “Aspartate aminotransferase increased” value ([1]; 600 mg BID, N = 3) was 1 (33.3) n (%) and the “Blood alkaline phosphatase increased” value ([1]; 600 mg BID, N = 3) was 0 n (%). The “Blood bilirubin increased” value ([1]; 600 mg BID, N = 3) was 2 (66.7) n (%), the “Decreased appetite” value ([1]; 600 mg BID, N = 3) was 1 (33.3) n (%) and the “Diarrhea, treatment-related adverse event” value ([1]; 600 mg BID, N = 3) was 2 (66.7) n (%). The “Fatigue, treatment-related adverse event” value ([1]; 600 mg BID, N = 3) was 3 n (%) and 3 (100.0) n (%), the “Headache, treatment-related adverse event” value ([1]; 600 mg BID, N = 3) was 1 (33.3) n (%) and the “Nausea, treatment-related adverse event” value ([1]; 600 mg BID, N = 3) was 1 (33.3) n (%). The “Blood bilirubin increased” value [1, 5] was 2 n (%), the “Diarrhea, treatment-related adverse event” value [1, 5] was 2 n (%) and the “Nausea, treatment-related adverse event” value [1, 5] was 1 n (%). The “recommended Phase 2 dose (RP2D)” value ([1]; Japanese subjects) was 400 mg BID, the “Anemia, treatment-related adverse event” value ([1]; Total, N = 9) was 2 (22.2) n (%) and the “Aspartate aminotransferase increased” value ([1]; Total, N = 9) was 2 (22.2) n (%). For the same compound, the “Blood alkaline phosphatase increased” value ([1]; Total, N = 9) was 2 (22.2) n (%), the “Blood bilirubin increased” value ([1]; Total, N = 9) was 7 (77.8) n (%) and the “Decreased appetite” value ([1]; Total, N = 9) was 4 (44.4) n (%). The “Diarrhea, treatment-related adverse event” value ([1]; Total, N = 9) was 3 (33.3) n (%), the “Fatigue, treatment-related adverse event” value ([1]; Total, N = 9) was 6 (66.7) n (%) and the “Headache, treatment-related adverse event” value ([1]; Total, N = 9) was 2 (22.2) n (%). The “Nausea, treatment-related adverse event” value ([1]; Total, N = 9) was 2 (22.2) n (%), the “Blood bilirubin increased” value [1, 6] was 7 n (%) and the “Decreased appetite” value [1, 6] was 4 n (%). For the same compound, the “Diarrhea, treatment-related adverse event” value [1, 6] was 3 n (%), the “Fatigue, treatment-related adverse event” value [1, 6] was 6 n (%) and the “Nausea, treatment-related adverse event” value [1, 6] was 2 n (%). The “AEs leading to death, SAEs, AEs leading to early study withdrawal” value ([1]; all dose cohorts) was “no AEs leading to death or SAEs, and no AEs leading to early study withdrawal”, the “concurrent increases in ALT or AST above ULN in subjects with hyperbilirubinemia” value ([1]; all dose cohorts) was “no increase in ALT or AST values associated with the increases in bilirubin” and the proteinuria ([1]; all dose cohorts) was “no subject developed any grade of proteinuria”. For the same compound, the “concurrent increases in ALT or AST above ULN in subjects with hyperbilirubinemia” value ([1]; all dose cohorts, listed as defactinib) was “None of these subjects had concurrent increases in ALT or AST above ULN”, the tolerability ([1]; all dose levels investigated) was “well tolerated at all dose levels investigated; also recorded: acceptable safety profile” and the “ECG parameters and QTc interval” value ([1]; any dose cohort) was “No clinically meaningful changes in any ECG parameter were observed for any dose cohort and no subject had a QTc interval ≥500 ms or QTc increase from baseline >30 ms”. For the same compound, the “dose-limiting toxicities (DLTs)” value ([1]; any dose cohort) was “No dose-limiting toxicities were observed at any dose level”, the “dose-limiting toxicities (DLTs)” value ([1]; any dose cohort, listed as defactinib) was “No DLTs were reported in any dose cohort” and the “subjects requiring dose modification for increased bilirubin” value ([1]; of the 9 subjects) was 1 subjects. For the same compound, the “time to resolution of Grade 3 hyperbilirubinemia after onset” value ([1]; one patient, 200 mg cohort, following interruption of study drug) was 6 days, the “onset of hyperbilirubinemia after initiating treatment” value ([1]; typical onset, asymptomatic) was at most 2 weeks and the UGT1A1 inhibition (UGT1A1) was “UGT1A1 inhibitors in vitro”. The “potential target organs in toxicology studies” value [2] was “liver and gall bladder, gastrointestinal tract, hematopoietic system, testes/epididymis, and cardiovascular system” and the “potential for CYP 2C-, 2D- or 3A-mediated drug interactions” value (CYP 2C, 2D, 3A) was “low potential”.
